These compounds were tested on HeLa (assay: Evaluated for cytotoxicity against HeLa S3 cells). Conditions: Homo sapiens.
Format: functional, cell-based
Work on `CC(=O)OCCOc1ccc2c(c[n+](C)c3c4cc5c(cc4ccc23)OCO5)c1O` yielded an IC50 of 480 nM.
`C=CC[n+]1cc2c(O)c(OC)ccc2c2ccc3cc4c(cc3c21)OCO4` showed an IC50 of 760 nM.
`COc1ccc(-c2c3c(O)c(OC)ccc3c3ccc4cc5c(cc4c3[n+]2C)OCO5)cc1` showed an IC50 of 16000 nM.
With `CC[n+]1cc2c(O)c(OC)ccc2c2ccc3cc4c(cc3c21)OCO4` the IC50 was 400 nM.
Work on `COc1ccc2c(c1O)c(-c1ccccc1)[n+](C)c1c3cc4c(cc3ccc21)OCO4` yielded an IC50 of 17000 nM.
`CC(C)Oc1ccc2c(c[n+](C)c3c4cc5c(cc4ccc23)OCO5)c1O` was tested, and the IC50 was 2400 nM.
`COc1ccc2c(c[n+](C)c3c4cc5c(cc4ccc23)OCO5)c1O` [FAGARIDINE] showed an IC50 of 320 nM.
Work on `COc1ccc2c(c1O)c(C)[n+](C)c1c3cc4c(cc3ccc21)OCO4` yielded an IC50 of 2900 nM.
`COC(=O)COc1ccc2c(c[n+](C)c3c4cc5c(cc4ccc23)OCO5)c1O` was tested, and the IC50 was 15000 nM.
For `C[n+]1cc2c(O)c(OCCO)ccc2c2ccc3cc4c(cc3c21)OCO4`, the IC50 was 520 nM.
For `COc1ccc2c(c1O)c(C1CC1)[n+](C)c1c3cc4c(cc3ccc21)OCO4`, the IC50 was 6500 nM.
With `C[n+]1cc2c(O)c(OCC(N)=O)ccc2c2ccc3cc4c(cc3c21)OCO4` the IC50 was 1900 nM.
`CCC[n+]1cc2c(O)c(OC)ccc2c2ccc3cc4c(cc3c21)OCO4` was tested, and the IC50 was 400 nM.
In the case of `C[n+]1cc2c(O)c(OCC(=O)O)ccc2c2ccc3cc4c(cc3c21)OCO4`, the IC50 is reported as > 24000 nM.
Compound `CCc1c2c(O)c(OC)ccc2c2ccc3cc4c(cc3c2[n+]1C)OCO4` has an IC50 of 11000 nM.
Compound `C[n+]1cc2c(O)c(OCc3ccccc3)ccc2c2ccc3cc4c(cc3c21)OCO4` has an IC50 of 17000 nM.
With `COc1ccc2c(c[n+](CC(=O)O)c3c4cc5c(cc4ccc23)OCO5)c1O` the IC50 was > 24000 nM.
For `CCCc1c2c(O)c(OC)ccc2c2ccc3cc4c(cc3c2[n+]1C)OCO4`, the IC50 was 2900 nM.
For `C=CCOc1ccc2c(c[n+](C)c3c4cc5c(cc4ccc23)OCO5)c1O`, the IC50 was 710 nM.

Source: ChEMBL document CHEMBL1132778, “Synthesis of derivatives of NK109, 7-OH benzo[c]phenanthridine alkaloid, and evaluation of their cytotoxicities and reduction-resistant properties” (Bioorg Med Chem Lett, 2000)
